Assays:
Type in all cases: cell-based, Thiobacillus
Thiobacilli (consortium) = assay: Acidification of TM medium with sulfur powder inoculated with a culture of Thiobacilli (Example 3); details: 33 g/l NaCl
Method: 25 ml of TM medium (regulated to pH 6 with HCl 0.1 N and sterilized in an autoclave with vapour for 20 minutes at 121° C.) were introduced into 100 ml flasks. 0.1 g (0.4%) of elemental sulfur (sulfur powder 98%-UNI sieved:0.05) were added to the TM culture medium. 2 g of small sulfur fragments taken from a sulfur deposit in Canada exposed for years to the outside environment and consequently definitely contaminated by sulfo-oxidizing bacteria, were added to the medium as a source of micro-organisms. The cultures were incubated under bland orbital stirring (100 rpm) for 25 days. During the incubation, the cultures were controlled daily for the indirect quantitative evaluation of the cellular development by registering the optical density value (at 600 nm) and to measure the lowering of the pH value.
At the end of this period, the culture broths obtained, with a cellular density higher than 10^7 cells/ml and a lowering of the pH of the medium to a value of 1.5, were filtered on common filter paper to eliminate the particles of excess sulfur and to be preserved, in 2 ml aliquots, in polypropylene phials, in a refrigerator at −70° C., as standardized inoculum.
The two consortia: that produced starting from collection strains and the one prepared starting from sulfur samples removed from actual deposits, were compared with respect to the growth curves and acidification capacity. […] It was then decided to use, for the whole following experiment, the trigger culture consisting of the wild type strains selected from the natural environment. This culture is hereafter called “consortium”.
25 ml of TM—in demineralized water—at pH 6, inoculated with 0.4% (vol/vol) of the bacterial suspension (consortium), with the addition of 0.1 g of sulfur powder, were introduced into 100 ml flasks. 33 g/l of NaCl were added to the medium to evaluate the inhibiting effect of the salt on the growth of the Thiobacilli and the acidification of the solution. Control cultures without NaCl were incubated parallelly.
The culture broths were controlled for pH and absorbance variations.

[1] = system: strains of the Thiobacilli type present in a natural environment; assay: Acidification of TM medium or rainwater with sulfur powder, no inoculation (Example 4)
Text: To imitate the bacterial growth conditions in a natural environment, the same experiment as Example 1 was repeated without the inoculation of Thiobacilli.
The TM saline medium was compared with a medium consisting of rainwater sterilized at a low temperature by filtration on a membrane of cellulose nitrate (porosity 0.2 microns).
The experiment is aimed at verifying the inhibiting action of NaCl on the acidification of water rich and poor in nutrients in contact with elemental sulfur due to strains of the Thiobacilli type present in a natural environment.

Thiobacilli [2] = assay: Acidification of water on sulfur block with salt englobed in surface sulfur layer, covered with sand (Example 10); details: 3 mm sulfur layer containing sodium chloride (10%), 2 cm sand
Method: (§1) Two blocks of elemental sulfur with an upper surface of approximately 2500 cm^2 (8.5 Kg of sulfur) are positioned in two containers. The surface of one block is then covered with a fine layer (3 mm) of liquid sulfur containing sodium chloride (10%). The upper surface of each block of sulfur is wetted with 250 ml of a bacterial suspension of Thiobacilli containing over 10^8 bacteria per milliliter. The two blocks are subsequently covered with a 2 cm layer of sand and wetted at regular intervals of time with rainwater until the layer of sand is saturated and the rilling of excess water is produced with respect to the saturation. Rainwater is added every month in a quantity equivalent to a fall of 100 mm.
(§2) The containers are exposed to the outside environment for three months. At the end of this period, the pH of the water in contact with the sulfur in the two containers, is measured.

Thiobacilli [3] = assay: Acidification of water on sulfur block treated with salt powder and covered with sand (Example 9); details: about 150 g of salt in powder form on surface, 2 cm sand
Method: as §1, with “containers.” for “containers. The surface of one block is then covered with a fine layer (3 mm) of liquid sulfur containing sodium chloride (10%).”, “milliliter. The surface of one block is then treated with sodium chloride by spreading about 150 g of salt in powder form uniformly distributed.” for “milliliter.”
as §2

## [Cl-].[Na+] [NaCl, Sodium Chloride]
Thiobacilli (consortium); day 0
  Optical density: 0.021
  pH: 6.0
Thiobacilli (consortium); day 1
  Optical density: 0.025
  pH: 6.0
Thiobacilli (consortium); day 3
  Optical density: 0.024
  pH: 6.0
Thiobacilli (consortium); day 5
  Optical density: 0.028
  pH: 5.8
Thiobacilli (consortium); day 9
  Optical density: 0.021
  pH: 5.8
Thiobacilli (consortium); day 12
  Optical density: 0.021
  pH: 5.8
Thiobacilli (consortium); day 14
  Optical density: 0.021
  pH: 5.8
Thiobacilli (consortium); day 16
  Optical density: 0.014
  pH: 5.8
Thiobacilli (consortium); day 19
  Optical density: 0.012
  pH: 5.8
Thiobacilli (consortium); day 21
  Optical density: 0.010
  pH: 5.8
Thiobacilli (consortium); day 24
  Optical density: 0.010
  pH: 5.8
Thiobacilli (consortium); day 26
  Optical density: 0.014
  pH: 5.8
[1]; Rainwater + NaCl, day 0
  pH: 6.0
[1]; Rainwater + NaCl, day 2
  pH: 6.0
[1]; Rainwater + NaCl, day 4
  pH: 6.0
[1]; Rainwater + NaCl, day 7
  pH: 6.0
[1]; Rainwater + NaCl, day 9
  pH: 6.0
[1]; Rainwater + NaCl, day 11
  pH: 6.0
[1]; Rainwater + NaCl, day 14
  pH: 6.0
[1]; Rainwater + NaCl, day 21
  pH: 5.8
[1]; Rainwater + NaCl, day 23
  pH: 5.8
[1]; TM Medium + NaCl, day 0
  pH: 6.0
[1]; TM Medium + NaCl, day 2
  pH: 6.0
[1]; TM Medium + NaCl, day 4
  pH: 6.0
[1]; TM Medium + NaCl, day 7
  pH: 6.0
[1]; TM Medium + NaCl, day 9
  pH: 6.0
[1]; TM Medium + NaCl, day 11
  pH: 6.0
[1]; TM Medium + NaCl, day 14
  pH: 6.0
[1]; TM Medium + NaCl, day 21
  pH: 5.8
[1]; TM Medium + NaCl, day 23
  pH: 5.8
Thiobacilli [2]; day 0
  pH: 6.5
Thiobacilli [2]; day 10
  pH: 6.5
Thiobacilli [2]; day 20
  pH: 6.5
Thiobacilli [2]; day 30
  pH: 6.5
Thiobacilli [2]; day 90
  pH: 6.5
Thiobacilli [3]; day 0
  pH: 6.0
Thiobacilli [3]; day 10
  pH: 5.8
Thiobacilli [3]; day 20
  pH: 5.7
Thiobacilli [3]; day 30
  pH: 5.7
Thiobacilli [3]; day 40
  pH: 5.7
Thiobacilli [3]; day 90
  pH: 5.7

Source: US7585460B2, “Method for inhibiting the biological acidification of water in contact with materials containing sulfur” (ENI S.p.A., priority 2003, dated 2009)
